Test system: hiPSC-derived hepatocytes
Assay: Lipid accumulation and insulin resistance in hiPSC-derived hepatocytes / human mini liver
Assay type: cell-based
Settings: overnight culture
From the text: FIGS. 6A-6H are schematics and images showing generation of functional human mini-organs in a dish. FIG. 6A is a schematic showing generation of functional human mini organs including human islets, pancreas, liver, heart, and intestine. FIGS. 6B-6C show the generation of a human heart organoid. FIG. 6B (top) provides a schematic illustrating the protocol for differentiation of a human pluripotent stem cell (hPSC) into a cardiomyocyte (when cultured in 2D) or into a mini heart (when co-cultured with hADSCs and HUVECs in 3D). FIG. 6B (bottom left) provides a plot showing relative expression of cardiomyocyte-specific genes human MLC2a (hMLC2a), human Nkx2-5 (hNkx2-5), alpha myosin heavy chain (alphaMHC), and KCNQ1 before (day 0) and at day 18 of the differentiation protocol, with and without the PPARδ agonist GW501516. At the bottom right of FIG. 6B is a videomicrograph showing beating of the hiPSC-derived cardiomyocytes. […] FIGS. 6D-6F show generation of a human liver organoid. FIG. 6D (top) provides a schematic illustrating the protocol for differentiation of a human pluripotent stem cell (hPSC) into hepatocytes. FIG. 6D (bottom left) provides a plot showing relative expression of hepatocyte-specific genes AFP, ALB, and Cyp3a7, during the differentiation of 6 independent preparations. At the bottom right of FIG. 6D is a micrograph showing hiPSC-derived hepatocytes. […]

phosphatidic acid
lipid droplets in hiPSC-derived hepatocytes: accumulation of lipid droplets

From patent US11685901B2, “Compositions and methods for organoid generation and disease modeling” (Salk Institute for Biological Studies, priority 2016, dated 2023)
